Data on ten compounds can be found in patent US11236106B2, “Cycloalkane-1,3-diamine derivative” (Daiichi Sankyo Company, Limited, priority 2018, dated 2022).

Counter-ions that a name gives are not always drawn.

As usually defined, the IC50 is the concentration that inhibits the measured activity by half. A higher IC50 goes with a need for much substance.

The first assay addresses T1, menin and MLL (menin, Flag tagged; biotinylated MLL1 peptide 1-46aa) (Homo sapiens, UniProt O00255).
T1 sequence (O00255 1-610): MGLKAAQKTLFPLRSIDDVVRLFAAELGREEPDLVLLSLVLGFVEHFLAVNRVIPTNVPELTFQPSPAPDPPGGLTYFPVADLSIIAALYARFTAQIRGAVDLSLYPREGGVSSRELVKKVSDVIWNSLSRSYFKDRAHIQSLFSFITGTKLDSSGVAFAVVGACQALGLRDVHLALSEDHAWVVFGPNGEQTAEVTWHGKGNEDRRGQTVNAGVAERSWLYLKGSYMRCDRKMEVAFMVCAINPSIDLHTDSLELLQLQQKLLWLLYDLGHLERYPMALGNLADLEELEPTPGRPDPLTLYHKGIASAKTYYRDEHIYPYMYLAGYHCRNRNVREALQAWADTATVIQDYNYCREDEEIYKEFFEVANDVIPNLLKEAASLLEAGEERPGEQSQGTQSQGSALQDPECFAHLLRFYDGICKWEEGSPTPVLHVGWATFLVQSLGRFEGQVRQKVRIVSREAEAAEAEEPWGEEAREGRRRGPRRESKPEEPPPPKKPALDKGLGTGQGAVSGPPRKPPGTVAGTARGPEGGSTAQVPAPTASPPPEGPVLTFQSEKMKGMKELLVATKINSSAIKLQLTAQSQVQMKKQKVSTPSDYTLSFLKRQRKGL
Nature of the assay: biochemical.
Settings: not given
As to `COc1ncc(-c2ccc(CN[C@H]3C[C@@H](O)[C@@H](N(C)c4ncnc5sc(CC(F)(F)F)cc45)C3)cc2)nc1OC` [Example 96, (1R,2S,4R)-4-({[4-(5,6-dimethoxypyrazin-2-yl)phenyl]methyl}amino)-2-{methyl[6-(2,2,2-trifluoroethyl)thieno[2,3-d]pyrimidin-4-yl]amino}cyclopentan-1-ol hydrochloride], the IC50 turned out to be 2.7 nM.

Still in this assay, the particulars now being: IC50, binding inhibitory activity between menin and MLL, AlphaLISA; 1 nM menin, 10 nM biotinylated MLL1 peptide.
`CN(c1ncnc2sc(CC(F)(F)F)cc12)[C@H]1C[C@@H](NCc2ccc(-c3cncc4c3cnn4C)cc2)C[C@H]1O` [Example 72, (1R,2S,4R)-4-({[4-(1-methyl-1H-pyrazolo[3,4-c]pyridin-4-yl)phenyl]methyl}amino)-2-{methyl[6-(2,2,2-trifluoroethyl)thieno[2,3-d]pyrimidin-4-yl]amino}cyclopentan-1-ol hydrochloride] had an IC50 of 10.7 nM.

`COc1cnc(-c2ccc(CN[C@H]3C[C@@H](O)[C@@H](N(C)c4ncnc5sc(CC(F)(F)F)cc45)C3)cc2)nc1OC` [Example 97, (1R,2S,4R)-4-({[4-(4,5-dimethoxypyrimidin-2-yl)phenyl]methyl}amino)-2-{methyl[6-(2,2,2-trifluoroethyl)thieno[2,3-d]pyrimidin-4-yl]amino}cyclopentan-1-ol hydrochloride] yielded a half-inhibitory concentration (IC50) of 3.9 nM.

As to `COc1cc(-c2ccc(CN[C@H]3C[C@@H](O)[C@@H](N(C)c4ncnc5sc(CC(F)(F)F)cc45)C3)cc2)nnc1C#N` [Example 99, 6-[4-({[(1R,3R,4S)-3-hydroxy-4-{methyl[6-(2,2,2-trifluoroethyl)thieno[2,3-d]pyrimidin-4-yl]amino}cyclopentyl]amino}methyl)phenyl]-4-methoxypyridazine-3-carbonitrile hydrochloride], the IC50 came out at 1.1 nM.

The compound `COc1cc(-c2ccc(CN[C@H]3CC[C@H](OC)[C@@H](Nc4ncnc5sc(CC(F)(F)F)cc45)C3)cc2)nnc1OC` [Example 126, (1S,3S,4S)—N^1-{[4-(5,6-dimethoxypyridazin-3-yl)phenyl]methyl}-4-methoxy-N^3-[6-(2,2,2-trifluoroethyl)thieno[2,3-d]pyrimidin-4-yl]cyclohexane-1,3-diamine Hydrochloride] came in with an IC50 of 7.5 nM.

Staying with this assay, now noted: cell free IC50 (nM), 1 nM menin, 10 nM biotinylated MLL1 peptide, AlphaLISA.
The compound `CN(c1ncnc2sc(CC(F)(F)F)cc12)[C@@H]1CC[C@H](NCc2ccc(S(=O)(=O)N3CCCCCC3)cc2)C1` [Example 59, (1R,3S)-N^3-{[4-(azepane-1-sulfonyl)phenyl]methyl)-N^1methyl-N^1-[6-(2,2,2-trifluoroethyl)thieno[2,3-d]pyrimidin-4-yl]cyclopentane-1,3-diamine hydrochloride] had a half-maximal inhibitory concentration (IC50) of 33 nM.

In the case of `FC(F)(F)Cc1cc2c(N[C@@H]3CCC[C@H](NCc4ccc(-c5ncco5)cc4)C3)ncnc2s1` [Example 35, (1S,3R)-N^1-{[4-(1,3-oxazol-2-yl)phenyl]methyl}-N^3-[6-(2,2,2-trifluoroethyl)thieno[2,3-d]pyrimidin-4-yl]cyclohexane-1,3-diamine hydrochloride], half-maximal inhibition (IC50) required 1220 nM.

Consider `CNc1nc(N(C)[C@H]2C[C@@H](NCc3ccc(-n4ccnc4)cc3)C[C@H]2O)c2cc(CC(F)(F)F)sc2n1` [Example 61, (1R,2S,4R)-4-({[4-(1H-imidazol-1-yl)phenyl]methyl}amino)-2-{methyl[2-(methylamino)-6-(2,2,2-trifluoroethyl)thieno[2,3-d]pyrimidin-4-yl]amino}cyclopentan-1-ol hydrochloride], for which half-maximal inhibition (IC50) required 1.9 nM.

The compound `CNc1nc(N(C)[C@H]2C[C@@H](NCc3ccc(Nc4cccnc4)cc3)C[C@@H]2O)c2cc(CC(F)(F)F)sc2n1` [Example 54, (1S,2S,4R)-2-{methyl[2-(methylamino)-6-(2,2,2-trifluoroethyl)thieno[2,3-d]pyrimidin-4-yl]amino}-4-[({4-[(pyridin-3-yl)amino]phenyl}methyl)amino]cyclopentan-1-ol hydrochloride] showed an IC50 of 1 nM.

`COc1cncc(-c2ccc(CN[C@@H]3C[C@H](Nc4ncnc5sc(CC(F)(F)F)cc45)C[C@H](C(=O)N(C)C)C3)cc2)c1` (single isomer, unassigned) [Example 17B, Hydrochloride] returned a half-maximal inhibitory concentration (IC50) of 13.3 nM.
